Test results published in US20090163461A1, “Ligand for Vesicular Acetylcholine Transporter” (priority 2005, published 2009).
Like-named read-outs stand apart in the source and are kept apart here.

Assays:
[1] = biological target: T1, VAChT in the brain (Rattus norvegicus, UniProt Q62666); test: Inhibitory effects of non-radioactive ligands on cerebral distribution of (−)-[^11C]-o-methylvesamicol in rats; format: in vivo; details: 30 minutes; for local accumulation of (−)-[^11C]-o-MeVES in the brain, effect of co-administered non-radioactive ligand: 500 nmol per kg i.v.; for Radioactivity level (% ID/g) Blood / Radioactivity level (% ID/g) Brain (other than above) / Radioactivity level (% ID/g) Cerebellum / Radioactivity level (% ID/g) Cerebral cortex / Radioactivity level (% ID/g) Hippocampus / Radioactivity level (% ID/g) Medulla oblongata / Radioactivity level (% ID/g) Striate body / Radioactivity level (% ID/g) Brain (whole): tracer (−)-[^11C]-o-MeVES 20 MBq i.v. together with ligand 500 nmol per kg, mean ± S.D. n = 4-6
T1 construct: from tissue; host or cells: brain of living rats, tissue counted or sectioned after killing
T1 sequence (Q62666 1-530): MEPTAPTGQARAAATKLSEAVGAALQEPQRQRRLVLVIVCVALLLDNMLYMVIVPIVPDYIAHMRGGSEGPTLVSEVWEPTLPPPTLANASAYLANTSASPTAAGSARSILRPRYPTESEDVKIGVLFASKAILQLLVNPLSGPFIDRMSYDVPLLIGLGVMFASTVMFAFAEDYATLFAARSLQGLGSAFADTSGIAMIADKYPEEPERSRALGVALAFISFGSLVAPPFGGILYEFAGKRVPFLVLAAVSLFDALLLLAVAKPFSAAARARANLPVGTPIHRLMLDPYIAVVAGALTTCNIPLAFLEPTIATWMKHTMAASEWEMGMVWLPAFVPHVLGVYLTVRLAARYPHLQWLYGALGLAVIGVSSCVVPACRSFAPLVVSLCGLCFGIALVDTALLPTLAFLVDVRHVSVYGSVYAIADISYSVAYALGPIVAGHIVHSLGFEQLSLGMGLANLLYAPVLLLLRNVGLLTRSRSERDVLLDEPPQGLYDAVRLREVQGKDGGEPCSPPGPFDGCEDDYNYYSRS
Description: To the caudal vein of each rat, an injection (0.1 ml) containing 20 MBq of (−)-[^11C]-o-MeVES and 0.1 ml (equivalent to 500 nmol per kg body weight) of a DMSO solution containing each of the above-described non-radioactive ligands were administered together. Thirty minutes after the administration, the rats were killed by cervical dislocation, and blood was drawn from the heart using a syringe, after which the brain was extirpated from each rat. The extirpated brain was divided into the cerebral cortex, hippocampus, striate body, cerebellum, medulla oblongata, and other parts, and the radioactivity in each tissue was measured using a gamma counter. Each tissue was also weighed.
For control, an injection (0.1 ml) containing 20 MBq of (−)-[^11C]-o-MeVES and a ligand-free DMSO solution (0.1 ml) were administered to the caudal vein of each rat, and measurements were taken in the same manner as described above.

[2] = biological target: T2, VAChT (Rattus norvegicus, UniProt Q62666); test: biochemical
T2 sequence (Q62666 1-530): T1 sequence (Q62666 1-530)
Description: (§1) The affinity of (−)-o-MeVES for VAChT and sigma receptors (σ-1, σ-2) was examined by in vitro drug inhibition experiments.
(§2) First, the brain and liver were extirpated from a rat, a 0.32 M sucrose solution in an amount by weight 10 times the weight of each tissue was added, and each tissue was ground using a Teflon homogenizer. Next, the ground tissue solution was centrifuged at 1000 g for 10 minutes, and the precipitated fraction was removed. Furthermore, the supernatant was centrifuged at 55000 g for 60 minutes, and the precipitated tissue was added to, and suspended in, 50 mM Tris-HCl buffer solution/0.32 M sucrose solution (pH 7.8).
For each test compound, samples at 10 different concentrations (concentrations set at 10 levels in the range of 10^−5 M to 10^−10 M) were prepared.
For each sample, the RI (100 μl), sample (50 μl), 50 mM Tris-HCl buffer solution (pH 7.8) (100 μl), 2 μM DTG solution (50 μl) (200 nM as the final concentration), and, finally, the prepared rat cerebral membrane (500-900 μg (protein weight)/200 μl) was added to a test tube, and they were reacted at 37° C. for 60 minutes. The test tube was cooled with ice to stop the reaction, and the rat cerebral membrane was immediately adsorbed to a glass filter using a cell harvester. After the glass filter was washed with 50 mM Tris-HCl buffer solution (pH 7.8) (5 ml) three times, the rat cerebral membrane, together with the glass filter, was placed in a liquid scintillation vial, and a liquid scintillator was added, after which radioactivity was measured using a liquid scintillation counter.
(§3) Ki=IC50/(1+C/Kd)(nM) formula

[3] = biological target: σ-1 receptor (Rattus norvegicus, UniProt Q9R0C9); test: biochemical
Chain of σ-1 receptor (Q9R0C9 whole entry): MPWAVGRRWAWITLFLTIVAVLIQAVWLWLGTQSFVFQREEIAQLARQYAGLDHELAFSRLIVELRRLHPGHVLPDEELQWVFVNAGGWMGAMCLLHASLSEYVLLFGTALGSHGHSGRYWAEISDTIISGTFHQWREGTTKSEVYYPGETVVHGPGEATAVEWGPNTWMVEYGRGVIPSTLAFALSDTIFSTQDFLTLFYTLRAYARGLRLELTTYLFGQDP
Description: as §1, §2, §3

[4] = biological target: T3, σ-2 receptor (Rattus norvegicus, UniProt Q5U3Y7); test: biochemical; format: binding
T3 construct: except that rat liver membranes (300-600 μg (protein weight)/200 μl) were used; from tissue; host or cells: rat liver membranes
T3 sequence (Q5U3Y7 1-176): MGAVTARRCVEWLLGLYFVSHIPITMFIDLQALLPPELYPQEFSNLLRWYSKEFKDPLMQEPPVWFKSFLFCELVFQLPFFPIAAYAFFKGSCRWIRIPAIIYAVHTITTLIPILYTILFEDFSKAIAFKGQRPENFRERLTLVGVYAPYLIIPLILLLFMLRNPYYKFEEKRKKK
Description: as §1, §2
3 nM [^3H]DTG ([^3H]-1,3-di-o-tolylguanidine) was used as the radioisotope (RI) for the σ-2 receptor. […] A test was performed in the same procedures as those for the test of affinity for the […] except that rat liver membranes (300-600 μg (protein weight)/200 μl) were used.
as §3

[5] = biological target: T4, δ-2 receptor (Rattus norvegicus, UniProt Q5U3Y7); details: in vitro, rat brain; mean±standard deviation; Life Sciences 71 (2002) 1591-1598; read-out: Ki value, affinity for δ-2 receptor; cited from earlier work
T4 construct: as a result of in vitro experiments using the rat brain
T4 sequence (Q5U3Y7 1-176): T3 sequence (Q5U3Y7 1-176)

[6] = biological target: T2, VAChT; design: the brain and liver were extirpated from a rat; from tissue; host or cells: rat brain (cerebral membranes); details: in vitro, rat brain; mean±standard deviation; Life Sciences 71 (2002) 1591-1598; read-out: Ki value, affinity for VAChT; cited from earlier work
[7] = biological target: T5, δ-1 receptor (Rattus norvegicus, UniProt Q9R0C9); details: in vitro, rat brain; mean±standard deviation; Life Sciences 71 (2002) 1591-1598; read-out: Ki value, affinity for δ-1 receptor; cited from earlier work
T5 construct: as a result of in vitro experiments using the rat brain; host or cells: rat brain
T5 sequence (Q9R0C9 whole entry): as the sequence (Q9R0C9 whole entry) above

[8] = compared with (−)-o-iodovesamicol

Row | Compound | local accumulation of (−)-[^11C]-o-MeVES in the brain, effect of co-administered non-radioactive ligand [1] | Radioactivity level (% ID/g) Blood [1] | Radioactivity level (% ID/g) Brain (other than above) [1] | Radioactivity level (% ID/g) Cerebellum [1] | Radioactivity level (% ID/g) Cerebral cortex [1] | Radioactivity level (% ID/g) Hippocampus [1] | Radioactivity level (% ID/g) Medulla oblongata [1] | Radioactivity level (% ID/g) Striate body [1] | Radioactivity level (% ID/g) Brain (whole) [1] | IC50 [2] | Ki [2] | IC50 [4] | Ki [4] | other results
1 | Cc1ccccc1C1CCN(C2CCCCC2O)CC1 (single isomer, unassigned; (-)) [(−)-o-MeVES, (−)-2-(4-(2-methylphenyl)piperidino)cyclohexanol] | inhibited | 0.14 ± 0.02 % ID/g | 0.63 ± 0.10 % ID/g | 0.60 ± 0.07 % ID/g | 0.70 ± 0.10 % ID/g | 0.71 ± 0.08 % ID/g | 0.74 ± 0.09 % ID/g | 0.71 ± 0.10 % ID/g | 0.68 ± 0.10 % ID/g | 16 nM | 6.7 ± 0.4 nM | 320 nM | 266 ± 28 nM | 6-1 receptor/VAChT ratio of the Ki values [2, 8]: higher; 6-2 receptor/VAChT ratio of the Ki values [2, 8]: higher; IC50 [3]: 38 nM; Ki [3]: 33.7 ± 5.9 nM; melting point: 116 to 118 °C
2 | OC1CCCCC1N1CCC(c2ccccc2I)CC1 (single isomer, unassigned; (-)) [(−)-o-iodovesamicol] | – | – | – | – | – | – | – | – | – | – | – | – | – | Ki [5]: 554 ± 137 nM; Ki [6]: 15 ± 2.9 nM; Ki [7]: 62.2 ± 12 nM
3 | CC(C)=CCN1CCC2(C)c3cc(O)ccc3CC1C2C (single isomer, unassigned; (+)) [(+)-Pentazocine, (+)-pentazocine] | not inhibited | 0.12 ± 0.01 % ID/g | 2.52 ± 0.43 % ID/g | 2.07 ± 0.31 % ID/g | 2.72 ± 0.40 % ID/g | 2.59 ± 0.44 % ID/g | 2.83 ± 0.45 % ID/g | 2.39 ± 0.40 % ID/g | 2.52 ± 0.40 % ID/g | 830 nM | 315 ± 121 nM | – | – | –
4 | COc1ccc(CCN2CCN(CCCc3ccccc3)CC2)cc1OC [SA4503, 1-(3,4-dimethoxyphenethyl)-4-(3-phenyl-propyl)piperazine] | inhibited | 0.14 ± 0.02 % ID/g | 0.55 ± 0.05 % ID/g | 0.52 ± 0.07 % ID/g | 0.62 ± 0.08 % ID/g | 0.84 ± 0.18 % ID/g | 0.66 ± 0.08 % ID/g | 0.61 ± 0.07 % ID/g | 0.59 ± 0.07 % ID/g | 120 nM | 50.2 ± 7.2 nM | 280 nM | 242 ± 17 nM | –
5 | OC1CCCCC1N1CCC(c2ccccc2)CC1 (single isomer, unassigned; (-)) [(−)-Vesamicol, 2-(4-Phenylpiperidino)-cyclohexanol] | inhibited | 0.13 ± 0.01 % ID/g | 0.69 ± 0.04 % ID/g | 0.62 ± 0.03 % ID/g | 0.71 ± 0.04 % ID/g | 0.66 ± 0.05 % ID/g | 0.80 ± 0.08 % ID/g | 0.72 ± 0.03 % ID/g | 0.70 ± 0.04 % ID/g | 13 nM | 4.4 ± 0.6 nM | 420 nM | 346 ± 37 nM | –
